≈ marks a conversion by molar mass, not a printed value. Structures can show the parent of a compound that is named as a salt.
Experiments:
Experiment in all cases: Agar dilution susceptibility of anaerobic bacteria (Chart 1)
Format in all cases: cell-based
[1] = test system: Bacteroides fragilis sp. fragilis 1877; settings: agar dilution, 37° C., Bacteroides fragilis sp. fragilis 1877; for MIC: Bacteroides fragilis, 24 h, read-out: 24 Hr. MIC
[2] = test system: Bacteroides fragilis sp. fragilis 103; settings: agar dilution, 37° C., Bacteroides fragilis sp. fragilis 103; for MIC: Bacteroides fragilis, 24 h, read-out: 24 Hr. MIC
[3] = test system: Bacteroides fragilis sp. fragilis 1451; settings: agar dilution, 37° C., Bacteroides fragilis sp. fragilis 1451; for MIC: Bacteroides fragilis, 24 h, read-out: 24 Hr. MIC
[4] = test system: Bacteroides fragilis sp. fragilis 1470; settings: agar dilution, 37° C., Bacteroides fragilis sp. fragilis 1470; for MIC: Bacteroides fragilis, 24 h, read-out: 24 Hr. MIC
[5] = test system: Bacteroides fragilis sp. fragilis 2; settings: Bacteroides fragilis, 24 h, agar dilution, 37° C.; Bacteroides fragilis sp. fragilis 2; read-out: 24 Hr. MIC
[6] = test system: Bacteroides fragilis sp. fragilis 9; settings: agar dilution, 37° C., Bacteroides fragilis sp. fragilis 9; for MIC: Bacteroides fragilis, 24 h, read-out: 24 Hr. MIC
[7] = test system: Bacteroides fragilis sp. thetaiotaomicron 1438; settings: agar dilution, 37° C., Bacteroides fragilis sp. thetaiotaomicron 1438; for MIC: Bacteroides fragilis, 24 h, read-out: 24 Hr. MIC
[8] = test system: Clostridium septicum 1128; settings: 37° C.; for MIC: Clostridium septicum, 1128, 24 h
Protocol: The susceptibility of anaerobic bacteria, both gram positive and gram negative, to a representative number of the novel compounds of this application was determined using the agar dilution method. The bacteria used were isolated from patients hospitalized at the Indiana Univerisity Medical Center. The isolates were identified in the anaerobe laboratory of the Medical Center by the criteria established by Dowell et al., Laboratory Methods in Anaerobic Bacteriology. Public Health Serv. Publ. NO. 1803 (1968) [Center for Disease Control, Atlanta, Ga.]; and by Smith et al., The Pathogenic Anaerobic Bacteria, pages 96- 136 (1968) [Charles C. Thomas, Publisher, Springfield, Ill.]. All the organisms were maintained in chopped meat glucose medium (Scott Labs) at room temperature.
The method used for the agar dilution tests was based on the studies of Sutter et al., Antimicrob. Ag. Chemother. 3, 188-193 (1973). The strains of anaerobic bacteria were grown in 16×× 120 mm. tubes for 16 to 18 hours in Thioglycolate medium without indicator-- 135C (Becton, Dickinson and Co.), to which was added 5 mcg. of hemin per milliliter prior to autoclaving, plus 1 mg. of sodium bicarbonate and 0.1 mcg. of filter-sterilized menadione per milliliter after autoclaving. The strains were adjusted to the turbidity of the No. 1 McFarland standard in Thioglycolate medium without indicator-- 135C containing an additional 0.13 percent Bacto-agar (Difco). Each strain was then applied to the surface of the petri plate (100 mm× 15 mm.) by means of a replicator.
For the agar dilution studies, two-fold dilutions of the test compounds were prepared in deionized water to which was then added laked sheep blood and filter-sterilized menadione so the concentrations after the agar dilution were 5 percent and 10 mcg./ml. respectively. An equal volume of double strength Brucella agar (Becton, Dickinson and Co.) was mixed with each dilution in a water bath held at 50° C. and then poured onto the petri dishes.
All of the procedures were done inside a plastic glove box, except for the incubation of the growth tubes and the pouring of the plates. After the plates hardened, they were put inside the glove box for a minimum of 2 hours before they were inoculated. Generally, the glove box procedures of Aranki et al., Applied Microbiology 17, 568-576 (1969), were followed, but the following modifications were used. Dry materials were introduced into the glove box by evacuating the lock to 28 inches of mercury and filling once with nitrogen gas, followed by evacuating in the same manner and filling with an 80 percent nitrogen plus 10 percent CO2 plus 10 percent hydrogen gas mixture. Liquid media and agar plates were introduced into the glove box by evacuating the lock to 10 inches of mercury and filling with gas four times. The nitrogen gas was used to fill the lock for the first two cycles of evacuation, with the gas mixture described above used for the final two fillings.
All the plates were incubated at 37° C. in Gas Pak jars (Becton, Dickinson and Co.) containing palladium-coated alumina catalysts (reactivated after each use). The results of the agar dilution tests were read after about 24 hours of incubation. The minimum inhibitory concentration (MIC) was recorded as the lowest concentration of test compound at which there was no growth.
The test compounds are identified by the number of the example describing their preparation. The antibiotics clindamycin (C), and erythromycin (E) were also run simultaneously with the novel compounds of this application,for comparison purposes, and the results are included in Chart 1 below.

[9] = test system: Peptococcus asaccharolyticus 1302; settings: agar dilution, 37° C., Peptococcus asaccharolyticus 1302; for MIC: Peptoniphilus asaccharolyticus, 1302, 24 h, read-out: 24 Hr. MIC
[10] = test system: Peptostreptococcus anaerobius 1428; settings: agar dilution, 37° C., Peptostreptococcus anaerobius 1428; for MIC: Peptostreptococcus anaerobius, 1428, 24 h, read-out: 24 Hr. MIC
[11] = test system: Bacteroides fragilis sp. fragilis 1936B; settings: agar dilution, 37° C., Bacteroides fragilis sp. fragilis 1936B; for MIC: Bacteroides fragilis, 24 h, read-out: 24 Hr. MIC
[12] = test system: Bacteroides melaninogenicus 1856/28; settings: agar dilution, 37° C., Bacteroides melaninogenicus 1856/28; for MIC: Prevotella intermedia, 1856/28, 24 h, read-out: 24 Hr. MIC
[13] = test system: Bacteroides vulgatis 1211; settings: agar dilution, 37° C., Bacteroides vulgatis 1211; for MIC: Bacteroides, 1211, 24 h, read-out: 24 Hr. MIC
[14] = test system: Fusobacterium symbiosum 1470; settings: agar dilution, 37° C., Fusobacterium symbiosum 1470; for MIC: Fusobacterium, 1470, 24 h, read-out: 24 Hr. MIC

For `CCC[C@@H]1C[C@@H](C(=O)N[C@@H]([C@H]2O[C@H](SC)[C@H](O)[C@@H](O)[C@H]2O)[C@H](C)Cl)N(C)C1` [C, clindamycin, reference compound], the MIC [1] was 0.25 µg/mL (≈ 0.588 µM), the MIC [2] was ≤ 0.06 µg/mL and the MIC [3] was 1 µg/mL (≈ 2.35 µM). For the same compound, the MIC [4] was 0.25 µg/mL (≈ 0.588 µM), the MIC [5] was 0.25 µg/mL (≈ 0.588 µM) and the MIC [6] was 0.125 µg/mL (≈ 0.294 µM). The MIC [7] was 0.5 µg/mL (≈ 1.18 µM), the MIC [8] was 8 µg/mL (≈ 18.8 µM) and the MIC [9] was ≤ 0.5 µg/mL. The MIC [10] was ≤ 0.5 µg/mL, the MIC [11] was ≤ 0.5 µg/mL and the MIC [12] was ≤ 0.5 µg/mL. The MIC [13] was ≤ 0.5 µg/mL and the MIC [14] was ≤ 0.5 µg/mL.

With `CCOC(=O)C(=O)Nc1c(C#N)c(-c2ncc([N+](=O)[O-])n2C)nn1C` [Example 1, N-[4-Cyano-1-methyl-3-(1-methyl-5-nitroimidazol-2-yl)pyrazol-5-yl]oxamic acid, ethyl ester] the MIC [1] was 0.25 µg/mL (≈ 0.72 µM), the “24 Hr. MIC” value [2] was ≤ 0.03 µg/mL and the MIC [3] was 0.25 µg/mL (≈ 0.72 µM). It also gave an MIC [4] of 0.125 µg/mL (≈ 0.36 µM), an MIC [5] of 0.25 µg/mL (≈ 0.72 µM) and an MIC [6] of 0.25 µg/mL (≈ 0.72 µM). For the same compound, the MIC [7] was 0.25 µg/mL (≈ 0.72 µM), the “24 Hr. MIC” value [8] was > 128 µg/mL and the “24 Hr. MIC” value [9] was 1.0 µg/mL. The MIC [10] was ≤ 0.25 µg/mL, the MIC [11] was ≤ 0.25 µg/mL and the “24 Hr. MIC” value [12] was 16 µg/mL. For the same compound, the MIC [13] was ≤ 0.25 µg/mL and the MIC [14] was ≤ 0.25 µg/mL.

With `CCOC(=O)C(=O)Nc1c(C#N)c(-c2ncc([N+](=O)[O-])n2C)nn1C` [Example 2, N-[4-Cyano-1-methyl-3-(1-methyl-5-nitroimidazol-2-yl)pyrazol-5-yl]oxamic acid, ethyl ester, sodium salt] the “24 Hr. MIC” value ([1]; sodium salt) was 0.5 µg/mL, the “24 Hr. MIC” value ([2]; sodium salt) was 0.125 µg/mL and the “24 Hr. MIC” value ([4]; sodium salt) was 0.25 µg/mL. For the same compound, the “24 Hr. MIC” value ([6]; sodium salt) was 0.5 µg/mL, the “24 Hr. MIC” value ([7]; sodium salt) was 0.25 µg/mL and the “24 Hr. MIC” value ([8]; sodium salt) was > 64 µg/mL. For the same compound, the “24 Hr. MIC” value ([9]; sodium salt) was ≤ 0.25 µg/mL, the “24 Hr. MIC” value ([10]; sodium salt) was ≤ 0.25 µg/mL and the “24 Hr. MIC” value ([11]; sodium salt) was ≤ 0.25 µg/mL. For the same compound, the “24 Hr. MIC” value ([12]; sodium salt) was 16 µg/mL, the “24 Hr. MIC” value ([13]; sodium salt) was ≤ 0.25 µg/mL and the “24 Hr. MIC” value ([14]; sodium salt) was ≤ 0.25 µg/mL.

For `Cn1nc(-c2ncc([N+](=O)[O-])n2C)c(C#N)c1NC(=O)C(=O)NN` [Example 6, 5-[4-Cyano-1-methyl-3-(1-methyl-5-nitroimidazol-2-yl)pyrazol5-yl]semioxamazide], the MIC [1] was 0.5 µg/mL (≈ 1.5 µM), the MIC [2] was 0.06 µg/mL (≈ 0.18 µM) and the MIC [3] was 0.5 µg/mL (≈ 1.5 µM). The MIC [4] was 0.25 µg/mL (≈ 0.75 µM), the MIC [5] was 0.25 µg/mL (≈ 0.75 µM) and the MIC [6] was 0.25 µg/mL (≈ 0.75 µM). For the same compound, the MIC [7] was 1 µg/mL (≈ 3 µM), the MIC [8] was > 128 µg/mL and the “24 Hr. MIC” value [9] was ≤ 0.25 µg/mL. For the same compound, the MIC [10] was ≤ 0.25 µg/mL, the “24 Hr. MIC” value [11] was ≤ 0.25 µg/mL and the MIC [12] was 8 µg/mL (≈ 24 µM). The “24 Hr. MIC” value [13] was ≤ 0.25 µg/mL and the MIC [14] was ≤ 0.25 µg/mL.

For `Cn1nc(-c2ncc([N+](=O)[O-])n2C)c(C#N)c1NC(=O)C(=O)c1ccccc1` [Example 10, N-[4-cyano-1-methyl-3-(1-methyl-5-nitroimidazol-2-yl)pyrazol-5-yl]-2-phenylglyoxylamide], the MIC [1] was ≤ 0.03 µg/mL, the MIC [2] was ≤ 0.03 µg/mL and the “24 Hr. MIC” value [3] was ≤ 0.03 µg/mL. The MIC [4] was ≤ 0.03 µg/mL, the MIC [5] was ≤ 0.03 µg/mL and the MIC [6] was ≤ 0.03 µg/mL. The “24 Hr. MIC” value [7] was ≤ 0.03 µg/mL, the “24 Hr. MIC” value [8] was 1.0 µg/mL and the MIC [9] was 1 µg/mL (≈ 2.64 µM). The “24 Hr. MIC” value [10] was 1.0 µg/mL, the “24 Hr. MIC” value [11] was 2 µg/mL and the MIC [12] was 32 µg/mL (≈ 84.4 µM). For the same compound, the “24 Hr. MIC” value [13] was 4 µg/mL and the MIC [14] was ≤ 0.03 µg/mL.
